{"source": "paper PMC12434715", "about": "(Biochemical pharmacology, 2018)", "key": {"SULT2A1 [1]": {"target": "T1, SULT2A1 (Homo sapiens, UniProt Q06520)", "T1 sequence (Q06520 1-285)": "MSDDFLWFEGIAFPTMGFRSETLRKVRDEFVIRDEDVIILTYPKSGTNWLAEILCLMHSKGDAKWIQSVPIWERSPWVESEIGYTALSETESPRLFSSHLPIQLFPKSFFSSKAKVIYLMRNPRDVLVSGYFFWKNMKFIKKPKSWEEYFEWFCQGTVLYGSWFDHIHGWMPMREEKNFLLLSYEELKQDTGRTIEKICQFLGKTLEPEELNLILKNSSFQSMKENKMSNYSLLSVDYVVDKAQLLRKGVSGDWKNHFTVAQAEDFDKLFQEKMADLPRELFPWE"}, "TK6/SULT vector cells [2]": {"system": "TK6/SULT vector cells", "type": "cell-based, human"}, "TK6/SULT2A1 cells [3]": {"system": "TK6/SULT2A1 cells", "experiment": "MTT assay of cell growth in TK6/SULT2A1 cells", "conditions": "for IC50: read-out: IC50 on cell growth"}, "TK6/SULT vector cells [4]": {"system": "TK6/SULT vector cells", "conditions": "45 µM"}, "SULT1E1 [5]": {"target": "T2, SULT1E1 (Homo sapiens, UniProt P49888)", "T2 sequence (P49888 1-294)": "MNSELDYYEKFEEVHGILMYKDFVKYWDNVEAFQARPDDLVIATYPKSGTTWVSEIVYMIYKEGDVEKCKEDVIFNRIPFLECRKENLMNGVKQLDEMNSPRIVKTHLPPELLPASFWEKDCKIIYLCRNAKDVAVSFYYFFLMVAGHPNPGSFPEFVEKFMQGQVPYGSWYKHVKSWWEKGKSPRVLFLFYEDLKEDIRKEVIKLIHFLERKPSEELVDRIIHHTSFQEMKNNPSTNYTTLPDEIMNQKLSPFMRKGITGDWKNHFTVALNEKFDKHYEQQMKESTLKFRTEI", "experiment": "Sulfonation by cytosol of HEK293/SULT1E1-overexpressing cells", "conditions": "SULT1E1 cytosol; 1 h at 37 °C; mean ± s.d., three experiments"}, "SULT1A1 [6]": {"target": "T3, SULT1A1 (Homo sapiens, UniProt P50225)", "T3 sequence (P50225 whole entry)": "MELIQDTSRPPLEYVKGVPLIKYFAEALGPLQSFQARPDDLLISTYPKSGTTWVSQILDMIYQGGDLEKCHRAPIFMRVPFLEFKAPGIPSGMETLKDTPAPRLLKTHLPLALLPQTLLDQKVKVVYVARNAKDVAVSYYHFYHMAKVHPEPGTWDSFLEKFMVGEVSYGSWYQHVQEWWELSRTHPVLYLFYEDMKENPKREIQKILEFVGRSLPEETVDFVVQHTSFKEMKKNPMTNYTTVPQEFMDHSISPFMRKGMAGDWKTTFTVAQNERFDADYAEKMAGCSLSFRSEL", "experiment": "Sulfonation by cytosol of HEK293/SULT1A1-overexpressing cells", "conditions": "SULT1A1 cytosol; 1 h at 37 °C; mean ± s.d., three experiments"}, "TK6/SULT2A1 cells [7]": {"system": "TK6/SULT2A1 cells", "conditions": "90 µM"}, "SULT1C4 [8]": {"target": "T4, SULT1C4 (Homo sapiens, UniProt O75897)", "T4 sequence (O75897 whole entry)": "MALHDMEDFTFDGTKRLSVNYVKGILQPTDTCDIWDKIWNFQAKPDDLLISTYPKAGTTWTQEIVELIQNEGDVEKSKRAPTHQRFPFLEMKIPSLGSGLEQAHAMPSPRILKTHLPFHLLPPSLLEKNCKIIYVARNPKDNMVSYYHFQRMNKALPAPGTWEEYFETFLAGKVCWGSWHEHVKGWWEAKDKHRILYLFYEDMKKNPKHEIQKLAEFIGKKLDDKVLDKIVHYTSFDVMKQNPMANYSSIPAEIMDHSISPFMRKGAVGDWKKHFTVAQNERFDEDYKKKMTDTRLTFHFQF", "experiment": "Sulfonation by cytosol of HEK293/SULT1C4-overexpressing cells", "conditions": "SULT1C4 cytosol; 1 h at 37 °C; mean ± s.d., three experiments"}, "TK6/SULT vector cells [9]": {"system": "TK6/SULT vector cells", "experiment": "MTT assay of cell growth in TK6/SULT vector cells", "conditions": "for IC50: read-out: IC50 on cell growth"}, "SULT1E1 [10]": {"target": "T2, SULT1E1"}, "SULT1C4 [11]": {"target": "T4, SULT1C4"}, "TK6 cells": {"system": "TK6 cells", "experiment": "MTT assay of cell growth in TK6 cells", "type": "cell-based, human", "conditions": "read-out: IC50 on cell growth"}, "SULT1A1 [12]": {"target": "T3, SULT1A1"}, "[13]": {"experiment": "Sulfonation activity of pooled human liver cytosols", "conditions": "Human liver cytosol; 1 h at 37 °C; mean ± s.d., three experiments"}, "[14]": {"experiment": "Stability of 12-sulfoxynevirapine in buffer by reversed-phase HPLC", "type": "physicochemical", "conditions": "up to 2 months"}, "[15]": {"system": "human hepatoma HepG2 cells", "conditions": "48 h exposure, ref [30]; cited from earlier work"}, "[16]": {"system": "immortalized normal liver THLE2 cells", "conditions": "48 h exposure, ref [30]; cited from earlier work"}, "SULT2A1 [17]": {"target": "T1, SULT2A1", "experiment": "Inhibition of SULT2A1-catalyzed sulfonation of triclosan", "type": "biochemical", "conditions": "10 μM pentachlorophenol, preliminary experiments"}, "SULT1E1 [18]": {"target": "T2, SULT1E1", "experiment": "Inhibition of SULT1E1-catalyzed sulfonation of triclosan", "type": "biochemical", "conditions": "10 μM pentachlorophenol, preliminary experiments"}, "[19]": {"target": "T5, cytosols from TK6/SULT2A1 cells (Homo sapiens, UniProt Q06520)", "T5 sequence (Q06520 1-285)": "T1 sequence (Q06520 1-285)", "experiment": "Sulfonation of triclosan by cytosols from TK6/SULT2A1 cells", "type": "in vitro ADME", "conditions": "not in TK6 and TK6/SULT vector cytosols"}, "SULT6B1": {"target": "T6, SULT6B1 (Homo sapiens, UniProt Q6IMI4)", "T6 sequence (Q6IMI4 1-303)": "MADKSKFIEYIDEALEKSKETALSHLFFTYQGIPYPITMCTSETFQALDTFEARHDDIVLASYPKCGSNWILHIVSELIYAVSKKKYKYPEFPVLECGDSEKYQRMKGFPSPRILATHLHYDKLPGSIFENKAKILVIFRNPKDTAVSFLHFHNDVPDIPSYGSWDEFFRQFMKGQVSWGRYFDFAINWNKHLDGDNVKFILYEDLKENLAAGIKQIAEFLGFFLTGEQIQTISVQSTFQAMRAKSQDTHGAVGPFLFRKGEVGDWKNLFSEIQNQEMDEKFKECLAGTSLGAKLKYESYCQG", "experiment": "Sulfonation by cytosol of HEK293/SULT6B1-overexpressing cells", "type": "in vitro ADME", "conditions": "250 μM [14C]triclosan, 0.5 mg cytosolic protein, 500 μM PAPS, pH 7.2, 37 °C, 2 h"}, "SULT1C2": {"target": "SULT1C2 (Homo sapiens, UniProt O00338)", "sequence (O00338 whole entry)": "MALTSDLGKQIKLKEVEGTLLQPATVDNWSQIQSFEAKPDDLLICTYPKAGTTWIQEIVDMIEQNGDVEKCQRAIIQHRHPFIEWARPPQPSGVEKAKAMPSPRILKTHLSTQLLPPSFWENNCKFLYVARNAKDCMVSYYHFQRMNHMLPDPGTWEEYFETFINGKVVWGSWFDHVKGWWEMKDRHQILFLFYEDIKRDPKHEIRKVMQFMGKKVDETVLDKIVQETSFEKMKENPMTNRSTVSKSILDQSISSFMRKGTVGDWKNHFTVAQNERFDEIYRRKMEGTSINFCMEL", "experiment": "Sulfonation by cytosol of HEK293/SULT1C2-overexpressing cells", "type": "in vitro ADME", "conditions": "250 μM [14C]triclosan, 0.5 mg cytosolic protein, 500 μM PAPS, pH 7.2, 37 °C, 2 h"}, "SULT2B1": {"target": "T7, SULT2B1 (Homo sapiens, UniProt O00204)", "T7 sequence (O00204 1-365)": "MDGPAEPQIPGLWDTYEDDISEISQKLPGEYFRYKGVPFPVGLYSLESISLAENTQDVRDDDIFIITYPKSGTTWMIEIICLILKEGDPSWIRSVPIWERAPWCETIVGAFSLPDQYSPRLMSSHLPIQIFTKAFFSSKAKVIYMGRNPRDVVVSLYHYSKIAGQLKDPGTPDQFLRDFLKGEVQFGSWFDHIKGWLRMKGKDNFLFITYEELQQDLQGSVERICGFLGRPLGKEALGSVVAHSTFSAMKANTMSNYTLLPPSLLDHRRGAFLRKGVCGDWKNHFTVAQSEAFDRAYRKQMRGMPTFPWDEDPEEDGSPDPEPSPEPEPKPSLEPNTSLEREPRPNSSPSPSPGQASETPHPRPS", "experiment": "Sulfonation by cytosol of HEK293/SULT2B1-overexpressing cells", "type": "in vitro ADME", "conditions": "250 μM [14C]triclosan, 0.5 mg cytosolic protein, 500 μM PAPS, pH 7.2, 37 °C, 2 h"}, "SULT4A1": {"target": "T8, SULT4A1 (Homo sapiens, UniProt Q9BR01)", "T8 sequence (Q9BR01 1-284)": "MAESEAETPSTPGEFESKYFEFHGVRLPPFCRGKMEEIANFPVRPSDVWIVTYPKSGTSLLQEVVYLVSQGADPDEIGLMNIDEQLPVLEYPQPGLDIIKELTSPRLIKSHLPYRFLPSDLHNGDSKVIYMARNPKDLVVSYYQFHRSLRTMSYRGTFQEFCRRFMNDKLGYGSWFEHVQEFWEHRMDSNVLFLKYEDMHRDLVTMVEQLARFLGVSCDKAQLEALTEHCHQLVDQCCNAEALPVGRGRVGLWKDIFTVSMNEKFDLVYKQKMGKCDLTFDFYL", "experiment": "Sulfonation by cytosol of HEK293/SULT4A1-overexpressing cells", "type": "in vitro ADME", "conditions": "250 μM [14C]triclosan, 0.5 mg cytosolic protein, 500 μM PAPS, pH 7.2, 37 °C, 2 h"}}, "note": "Where two headings read alike, the source gives them in different places.", "data": [{"smiles": "O=C1Nc2c(CO)ccnc2N(C2CC2)c2ncccc21", "note": "[12-Hydroxynevirapine]", "values": [{"measurement": "Km", "setting": "SULT2A1 [1]", "result": "545 ± 68.5", "unit": "µM"}, {"measurement": "Formation of 12-sulfoxynevirapine in treated cells", "setting": "TK6/SULT vector cells [2]", "result": "not detected"}, {"measurement": "IC50", "setting": "TK6/SULT2A1 cells [3]; TK6/SULT2A1 cells, 48 h exposure, MTT assay", "result": 89.9, "unit": "µM"}, {"measurement": "Cell viability", "setting": "TK6/SULT vector cells [4]", "result": "approximately 50%"}, {"measurement": "Vmax", "setting": "SULT1E1 [5]", "result": "71.0 ± 2.8 pmol min^−1 cytosolic protein mg^−1"}, {"measurement": "Vmax", "setting": "SULT1A1 [6]", "result": "71.2 ± 2.0 pmol min^−1 cytosolic protein mg^−1"}, {"measurement": "Cell viability", "setting": "TK6/SULT2A1 cells [7]", "result": "approximately 50%"}, {"measurement": "Vmax", "setting": "SULT1C4 [8]", "result": "56.0 ± 2.2 pmol min^−1 cytosolic protein mg^−1"}, {"measurement": "IC50", "setting": "TK6/SULT vector cells [9]; TK6/SULT vector cells, 48 h exposure, MTT assay", "result": 45.1, "unit": "µM"}, {"measurement": "Km", "setting": "SULT1E1 [10]", "result": "216 ± 34", "unit": "µM"}, {"measurement": "Km", "setting": "SULT1C4 [11]", "result": "260 ± 38.9", "unit": "µM"}, {"measurement": "IC50", "setting": "TK6 cells; TK6 cells, 48 h exposure, MTT assay", "result": 42.6, "unit": "µM"}, {"measurement": "Km", "setting": "SULT1A1 [12]", "result": "787 ± 62.2", "unit": "µM"}, {"measurement": "Vmax", "setting": "[13]", "result": "71.0 ± 4.5 pmol min^−1 cytosolic protein mg^−1"}]}, {"smiles": "O=C1Nc2c(COS(=O)(=O)O)ccnc2N(C2CC2)c2ncccc21", "note": "[12-Sulfoxynevirapine]", "values": [{"measurement": "Stability in buffer", "setting": "[14]; 50 mM Bis-Tris, pH 7.1, room temperature", "result": "stable"}, {"measurement": "Stability in buffer", "setting": "[14]; 100 mM sodium phosphate, pH 7.2, room temperature", "result": "stable"}]}, {"smiles": "Cc1ccnc2c1NC(=O)c1cccnc1N2C1CC1", "note": "[Nevirapine, 11-cyclopropyl-5,11-dihydro-4-methyl-6H-dipyrido [3,2-b:2′,3′-e][1, 4]diazepin-6-one]", "values": [{"measurement": "IC50", "setting": "TK6/SULT2A1 cells [3]; Homo sapiens, 48 h", "result": "~130", "unit": "µM"}, {"measurement": "Concentration that inhibited cell growth", "setting": "[15]", "result": "approximately 1.0 mM"}, {"measurement": "IC50", "setting": "TK6/SULT vector cells [9]; Homo sapiens, 48 h", "result": "~130", "unit": "µM"}, {"measurement": "IC50", "setting": "TK6 cells; Homo sapiens, TK6, 48 h", "result": "~130", "unit": "µM"}, {"measurement": "Concentration that inhibited cell growth", "setting": "[16]", "result": "approximately 1.0 mM"}]}, {"smiles": "Oc1c(Cl)c(Cl)c(Cl)c(Cl)c1Cl", "note": "[Pentachlorophenol, pentachlorophenol]", "values": [{"measurement": "Cytotoxicity of the SULT substrate alone", "setting": "TK6/SULT2A1 cells [3]; TK6/SULT2A1 cells, tested concentration (DHEA 5 μM, pentachlorophenol 10 μM), 48 h, MTT", "result": "not cytotoxic"}, {"measurement": "Cytotoxicity of the SULT substrate alone", "setting": "TK6/SULT vector cells [9]; TK6/SULT vector cells, tested concentration (DHEA 5 μM, pentachlorophenol 10 μM), 48 h, MTT", "result": "not cytotoxic"}, {"measurement": "Triclosan being sulfated in the presence of inhibitor", "setting": "SULT2A1 [17]", "result": 12, "unit": "%"}, {"measurement": "Triclosan being sulfated in the presence of inhibitor", "setting": "SULT1E1 [18]", "result": 44, "unit": "%"}]}, {"smiles": "Oc1cc(Cl)ccc1Oc1ccc(Cl)cc1Cl", "note": "[Triclosan, triclosan]", "values": [{"measurement": "Sulfonation activity towards triclosan", "setting": "[19]", "result": "showed sulfonation activity"}, {"measurement": "Sulfonation of triclosan", "setting": "SULT6B1", "result": "33.8 ± 1.0 pmol min^−1 mg cytosolic protein^−1"}, {"measurement": "Sulfonation of triclosan", "setting": "SULT1C2", "result": "28.5 ± 0.2 pmol min^−1 mg cytosolic protein^−1"}, {"measurement": "Sulfonation of triclosan", "setting": "SULT2B1", "result": "46.6 ± 1.9 pmol min^−1 mg cytosolic protein^−1"}, {"measurement": "Sulfonation of triclosan", "setting": "SULT4A1", "result": "50.4 ± 0.6 pmol min^−1 mg cytosolic protein^−1"}]}]}
